Assay results: patent US9504676B2, “Molecules inhibiting a metabolic pathway involving the Syk protein tyrosine kinase and method for identifying said molecules” (CENTRE NATIONAL DE LA RECHERCHE SCIENTIFIQUE, priority 2008, dated 2016)

System: PLC-γ with LAT
Assay: Association of PLC-γ with LAT (immunoprecipitation)
Type: cell-based, rat
Conditions: dose-dependent
Procedure: Binding of Btk and Vav with SLP-76 is critical for regulating PLC-γ activity on the membrane, calcium mobilisation and granule exocytosis^27, 28.
• 1) Chemical products and antibodies. A chemical bank of 3000 molecules (a varied subset) was acquired from ChemBridge, Inc. (San Diego, Calif.). Stocks of solutions of small molecules were prepared at a rate of 10 mM in DMSO (dimethylsulphoxide), except for C-13 (methyl 2-{5-[(3-benzyl-4-oxo-2-thioxo-1,3-thiazolidin-5-ylidene)methyl]-2-furyl}benzoate, ChemBridge ID No. 6197026) prepared in DMF (dimethylformamide). Unless specified otherwise, all the reagents were supplied by Sigma. Dinitrophenyl (DNP) hapten was acquired from Calbiochem. […] The binding of G4G11 with Syk was assessed by adding the 9E10 monoclonal antibody conjugated with HRP detecting the amino acid sequence EQKLISEEDLN of human c-myc protein located at the C-terminal end of the scFv fragment. To generate Syk mutants, targeted mutagenesis was used on GST:Syk 6-242 protein and the binding of G4G11 with the mutants was assessed in the presence of 5 μM of C-13. • 3) Cells, culture conditions and functional tests. […] The level of β-hexosaminidase released was measured 10 min later and the TNF-α titration was performed by means of a cytotoxicity test on L929 cells as described previously^10, 3 hours after stimulation. […]

## COC(=O)c1ccccc1-c1ccc(/C=C2/SC(=S)N(Cc3ccccc3)C2=O)o1 [Molecule C-13, methyl 2-{5-[(3-benzyl-4-oxo-2-thioxo-1,3-thiazolidin-5-ylidene)methyl]-2-furyl}benzoate]
  association of PLC-γ with LAT: inhibited
